Experimental data reported in patent US8735398B2 (Bristol-Myers Squibb Company, priority 2009, dated 2014).
pEC50: −log10 of the molar value. Where two headings read alike, the source gives them in different places.

System: HCV 1b genotype
Assay: HCV replicon assay (HCV-neo replicon cells, wild-type)
Format: cell-based, Hepatitis C virus
Details: HCV 1b genotype replicon
Procedure: An HCV Replicon assay was utilized in the present disclosure, and was prepared, conducted and validated as described in commonly owned PCT/US2006/022197 and in O'Boyle et al., Antimicrob. Agents Chemother, 49(4):1346-1353 (April 2005). Assay methods incorporating luciferase reporters have also been used as described (Apath.com).
HCV-neo replicon cells and replicon cells containing resistance substitutions in the NS5A region were used to test the currently described family of compounds.
The compounds were determined to have differing degrees of reduced inhibitory activity on cells containing mutations vs. the corresponding inhibitory potency against wild-type cells. Thus, the compounds of the present disclosure can be effective in inhibiting the function of the HCV NS5A protein and are understood to be as effective in combinations as previously described in application PCT/US2006/022197 and commonly owned WO 04/014852. It should be understood that the compounds of the present disclosure can inhibit multiple genotypes of HCV. […] In one embodiment, compounds of the present disclosure are inhibitory versus 1a, 1b, 2a, 2b, 3a, 4a, and 5a genotypes.

[1] = Hepatitis C virus, class symbol, read-out: EC50 Range against HCV 1b
[2] = Hepatitis C virus, read-out: EC50 1b
[3] = Hepatitis C virus, class symbols, read-out: EC50 Range against HCV 1b
[4] = class symbol, read-out: EC50 Range against HCV 1b

CC(=O)N1CCC[C@H]1C(=O)Nc1ccc(-c2ncc(-c3ccc(NC(=O)[C@@H]4CCCN4C(=O)Cc4ccccc4)cc3)o2)cc1 [MS-6, (2S)-1-acetyl-N-(4-(5-(4-((((2S)-1-(phenylacetyl)-2-pyrrolidinyl)carbonyl)amino)phenyl)-1,3-oxazol-2-yl)phenyl)-2-pyrrolidinecarboxamide]
pEC50 [1]: 6.00 to 7.00 | pEC50 [2]: 6.73

C[C@@](O)(C(=O)N1CCC[C@H]1C(=O)Nc1ccc(-c2nc[nH]c2-c2ccc(NC(=O)[C@@H]3CCCN3C(=O)[C@@](C)(O)c3ccccc3)cc2)cc1)c1ccccc1 [JG-46, (2S,2′S)-N,N′-(1H-imidazole-4,5-diyldi-4,1-phenylene)bis(1-((2S)-2-hydroxy-2-phenylpropanoyl)-2-pyrrolidinecarboxamide)]
pEC50 [1]: > 8.34

Cc1cc(C(=O)N2CCC[C@H]2C(=O)Nc2ccc(-c3cnc(-c4ccc(NC(=O)[C@@H]5CCCN5C(=O)c5cc(C)c(C)o5)cc4)o3)cc2)oc1C [XY-27, (2S,2′S)-N,N′-(1,3-oxazole-2,5-diyldi-4,1-phenylene)bis(1-(4,5-dimethyl-2-furoyl)-2-pyrrolidinecarboxamide)]
pEC50 [3]: 6.00 to 7.00

CC(C)(C)OC(=O)N1CCCC1C(=O)N1CCCC1C(=O)Nc1ccc(-c2cnc(-c3ccc(NC(=O)C4CCCN4C(=O)C4CCCN4C(=O)OC(C)(C)C)cc3)o2)cc1 [Example D-27, di-tert-butyl (2S,2′S)-2,2′-(1,3-oxazole-2,5-diylbis(4,1-phenylenecarbamoyl(2S)-2,1-pyrrolidinediylcarbonyl))di(1-pyrrolidinecarboxylate)]
pEC50 [4]: 5.00 to 6.00

CC(C)(C)OC(=O)N1CCCC1C(=O)N1CCCC1C(=O)Nc1ccc(-c2cnc(-c3ccc(NC(=O)C4CCCN4C(=O)C4CCCN4C(=O)OC(C)(C)C)cc3)o2)cc1 [Example D-28, di-tert-butyl (2R,2′R)-2,2′-(1,3-oxazole-2,5-diylbis(4,1-phenylenecarbamoyl(2S)-2,1-pyrrolidinediylcarbonyl))di(1-pyrrolidinecarboxylate)]
pEC50 [4]: 5.00 to 6.00

CC(=O)N1CCC[C@H]1C(=O)Nc1ccc(-c2cnc(-c3ccc(NC(=O)C4CC(=O)N(CCc5cccs5)C4)cc3)o2)cc1 (stereo partly drawn) [MS-5, (2S)-1-acetyl-N-[4-[2-[4-[[[5-oxo-1-[2-(2-thienyl)ethyl]-3-pyrrolidinyl]carbonyl]amino]phenyl]-5-oxazolyl]phenyl]-2-pyrrolidinecarboxamide]
pEC50 [1]: 6.00 to 7.00

O=C(Nc1ccc(-c2nnc(-c3ccc(NC(=O)[C@@H]4CCCN4C(=O)CC4CC4)cc3)o2)cc1)[C@@H]1CCCN1C(=O)CC1CC1 [Example D-57, (2S,2′S)-N,N′-(1,3,4-oxadiazole-2,5-diyldi-4,1-phenylene)bis[1-(cyclopropylacetyl)-2-pyrrolidinecarboxamide]]
pEC50 [1]: 5.00 to 6.00 | pEC50 [2]: 5.71

O=C(Nc1ccc(-c2cnc(-c3ccc(NC(=O)[C@@H]4CCCN4C(=O)c4ccco4)cc3)o2)cc1)[C@@H]1CCCN1C(=O)c1ccco1 [XY-37, (2S,2′S)-N,N′-(1,3-oxazole-2,5-diyldi-4,1-phenylene)bis(1-(2-furoyl)-2-pyrrolidinecarboxamide)]
pEC50 [3]: 6.00 to 7.00

O=C(Nc1ccc(-c2ccc(-c3ccc(NC(=O)[C@@H]4CCCN4C(=O)[C@H](O)c4ccccc4)cc3)o2)cc1)[C@@H]1CCCN1C(=O)[C@H](O)c1ccccc1 [JG-56, (2S,2′S)-N,N′-(2,5-furandiyldi-4,1-phenylene)bis(1-((2R)-2-hydroxy-2-phenylacetyl)-2-pyrrolidinecarboxamide)]
pEC50 [4]: > 8.34 | pEC50 [2]: > 8.30

CC(C)n1c(=O)n(CC(=O)N2CCC[C@H]2C(=O)Nc2ccc(-c3cnc(-c4ccc(NC(=O)[C@@H]5CCCN5C(=O)Cn5c(=O)n(C(C)C)c6cc(F)c(F)cc65)cc4)o3)cc2)c2cc(F)c(F)cc21 [Example D-9, (2S,2′S)-N,N′-(4,4′-(oxazole-2,5-diyl)bis(4,1-phenylene))bis(1-(2-(5,6-difluoro-3-isopropyl-2-oxo-2,3-dihydro-1H-benzo[d]imidazol-1-yl)acetyl)pyrrolidine-2-carboxamide)]
pEC50 [4]: 5.00 to 6.00 | pEC50 (read-out: EC50 1b): 5.48

O=C(Nc1ccc(-c2cnc(-c3ccc(NC(=O)[C@@H]4CCCN4C(=O)[C@H](O)c4ccccc4)cc3)o2)cc1)[C@@H]1CCCN1C(=O)[C@H](O)c1ccccc1 [JG-23, (2S,2′S)-N,N′-(1,3-oxazole-2,5-diyldi-4,1-phenylene)bis(1-((2R)-2-hydroxy-2-phenylacetyl)-2-pyrrolidinecarboxamide)]
pEC50 [1]: > 8.34

CC1(C(=O)N2CCC[C@H]2C(=O)Nc2ccc(-c3cnc(-c4ccc(NC(=O)[C@@H]5CCCN5C(=O)C5(C)CCCN5)cc4)o3)cc2)CCCN1 (stereo partly drawn) [Example D-36, (2S,2′S)-N,N′-(1,3-oxazole-2,5-diyldi-4,1-phenylene)bis(1-((2-methyl-2-pyrrolidinyl)carbonyl)-2-pyrrolidinecarboxamide)]
pEC50 [1]: 5.00 to 6.00

Cc1noc(C)c1C(=O)N1C[C@H](O)C[C@H]1C(=O)Nc1ccc(-c2cnc(-c3ccc(NC(=O)[C@@H]4C[C@@H](O)CN4C(=O)c4c(C)noc4C)cc3)o2)cc1 [XY-53, (2S,4R,2′S,4′R)-N,N′-(1,3-oxazole-2,5-diyldi-4,1-phenylene)bis(1-((3,5-dimethyl-4-isoxazolyl)carbonyl)-4-hydroxy-2-pyrrolidinecarboxamide)]
pEC50 [3]: 5.00 to 6.00 | pEC50 [2]: 5.09

CC(=O)N[C@@H](C(=O)N1CCCC1C(=O)Nc1ccc(-c2cc(-c3ccc(NC(=O)C4CCCN4C(=O)[C@H](NC(C)=O)c4ccccc4)cc3)[nH]n2)cc1)c1ccccc1 (stereo partly drawn) [OL-42, N,N′-(1H-pyrazole-3,5-diyldi-4,1-phenylene)bis(1-((2R)-2-acetamido-2-phenylacetyl)-2-pyrrolidinecarboxamide)]
pEC50 [1]: > 8.34

CN(C)[C@H](C(=O)N1CCC[C@H]1C(=O)Nc1ccc(-c2cnc(-c3ccc(NC(=O)[C@@H]4CCCN4C(=O)[C@H]([C@@H](O)c4ccccc4)N(C)C)cc3)o2)cc1)[C@@H](O)c1ccccc1 [JR-13, (S,S,2S)-N,N′-(4,4′-(oxazole-2,5-diyl)bis(4,1-phenylene))bis(1-((2S,3S)-2-(dimethylamino)-3-hydroxy-3-phenylpropanoyl)pyrrolidine-2-carboxamide)]
pEC50 (class symbols, read-out: EC50 Range against HCV 1b): 6.00 to 7.00 | pEC50 (read-out: EC50 1b): 6.95

C[C@H](NC(=O)OCc1ccccc1)C(=O)Nc1ccc(-c2n[nH]c(=O)n2-c2ccc(NC(=O)[C@H](C)NC(=O)OCc3ccccc3)cc2)cc1 [OL-12, [(1,5-dihydro-5-oxo-4H-1,2,4-triazole-3,4-diyl)bis[4,1-phenyleneimino[(1S)-1-methyl-2-oxo-2,1-ethanediyl]]]bis-carbamic acid, bis(phenylmethyl) ester]
pEC50 [1]: 5.00 to 6.00

O=C(Nc1ccc(-c2nc[nH]c2-c2ccc(NC(=O)[C@@H]3CCCN3C(=O)c3ccc4occc4c3)cc2)cc1)[C@@H]1CCCN1C(=O)c1ccc2occc2c1 [JG-52, (2S,2′S)-N,N′-(1H-imidazole-4,5-diyldi-4,1-phenylene)bis(1-(1-benzofuran-5-ylcarbonyl)-2-pyrrolidinecarboxamide)]
pEC50 [1]: 6.00 to 7.00

CC(C)C(C(=O)N1CCC[C@H]1C(=O)Nc1ccc(-c2cnc(-c3ccc(NC(=O)[C@@H]4CCCN4C(=O)C(C(C)C)N4C(=O)C5C6C=CC(C6)C5C4=O)cc3)o2)cc1)N1C(=O)C2C3C=CC(C3)C2C1=O (stereo partly drawn) [JR-19, (2S,2′S)-N,N′-(2,5-oxazolediyldi-4,1-phenylene)bis[1-[2-(1,3,3a,4,7,7a-hexahydro-1,3-dioxo-4,7-methano-2H-isoindol-2-yl)-3-methyl-1-oxobutyl]-2-pyrrolidinecarboxamide]]
pEC50 [3]: 6.00 to 7.00

CC(=O)N1CCC[C@H]1C(=O)Nc1ccc(-c2nnc(-c3ccc(NC(=O)[C@@H]4CCCN4C(=O)Cc4cccs4)cc3)o2)cc1 [Example D-62, (2S)-1-acetyl-N-[4-[5-[4-[[[(2S)-1-(2-thienylacetyl)-2-pyrrolidinyl]carbonyl]amino]phenyl]-1,3,4-oxadiazol-2-yl]phenyl]-2-pyrrolidinecarboxamide]
pEC50 [1]: 5.00 to 6.00 | pEC50 [2]: 5.46

CC(=O)N1CCC[C@H]1C(=O)Nc1ccc(-c2nc(-c3ccc(NC(=O)[C@@H]4C=CCN4C(=O)c4cccs4)cc3)cs2)cc1 [Example D-47, (2S)-N-[4-[2-[4-[[[(2S)-1-acetyl-2-pyrrolidinyl]carbonyl]amino]phenyl]-4-thiazolyl]phenyl]-2,5-dihydro-1-(2-thienylcarbonyl)-1H-pyrrole-2-carboxamide]
pEC50 [1]: 5.00 to 6.00

Cn1cccc1CC(=O)N1CCC[C@H]1C(=O)Nc1ccc(-c2cnc(-c3ccc(NC(=O)[C@@H]4CCCN4C(=O)Cc4cccn4C)cc3)o2)cc1 [XY-40, (2S,2′S)-N,N′-(1,3-oxazole-2,5-diyldi-4,1-phenylene)bis(1-((1-methyl-1H-pyrrol-2-yl)acetyl)-2-pyrrolidinecarboxamide)]
pEC50 [3]: 6.00 to 7.00

CN(C)C(C(=O)N1CCC[C@H]1C(=O)Nc1ccc(-c2cnc(-c3ccc(NC(=O)[C@@H]4CCCN4C(=O)C(c4ccccc4F)N(C)C)cc3)o2)cc1)c1ccccc1F (stereo partly drawn) [Example D-4, (2S,2′S)-N,N′-(2,5-oxazolediyldi-4,1-phenylene)bis[1-[(dimethylamino)(2-fluorophenyl)acetyl]-2-pyrrolidinecarboxamide]]
pEC50 [1]: > 8.34

O=C(Cc1ccccc1)NC1(C(=O)Nc2ccc(-c3cnc(-c4ccc(NC(=O)C5(NC(=O)Cc6ccccc6)CC5)cc4)o3)cc2)CC1 [JG-18, N,N′-(1,3-oxazole-2,5-diyldi-4,1-phenylene)bis(1-((phenylacetyl)amino)cyclopropanecarboxamide)]
pEC50 [1]: 5.00 to 6.00
